The structures appear in SMILES notation.

For this test, the target named is T1, human GPBAR1 receptor (Homo sapiens, UniProt Q8TDU6).
T1 construct: expressed in transfected cells
T1 sequence (Q8TDU6 1-330): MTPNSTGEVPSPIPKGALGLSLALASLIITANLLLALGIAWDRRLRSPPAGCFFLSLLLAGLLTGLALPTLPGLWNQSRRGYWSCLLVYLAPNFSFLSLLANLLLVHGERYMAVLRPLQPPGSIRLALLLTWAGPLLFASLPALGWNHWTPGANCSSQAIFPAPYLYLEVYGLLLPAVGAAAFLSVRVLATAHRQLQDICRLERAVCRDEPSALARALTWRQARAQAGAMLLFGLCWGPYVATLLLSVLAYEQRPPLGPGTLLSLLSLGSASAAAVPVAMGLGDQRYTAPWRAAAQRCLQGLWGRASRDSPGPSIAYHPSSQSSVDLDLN
Briefly: functional cAMP assay in CHO-dhfr(minus) cells expressing human GPBAR1 receptors. The class given is cell-based. The following applies: cAMP increase (TR-FRET) in CHO-dhfr(minus) cells expressing human GPBAR1; compounds incubated 30 min at 30° C. On the procedure: The final clone was verified by DNA sequence analysis. The plasmid was transfected into CHO cells deficient in dihydrofolate reductase activity (CHO-dhfr-) using Lipofectamine plus (Invitrogen). Clones were isolated in limited dilution conditions and identified by activities in the cAMP assay using lithocholic acid as agonist.
The growth medium was exchanged with Krebs Ringer Bicarbonate buffer with 1 mM IBMX and incubated at 30° C. for 30 mM. Compounds were added to a final assay volume of 100 μl and incubated for 30 min at 30° C. […] The time-resolved energy transfer is measured by a TRF reader (Evotec Technologies GmbH, Hamburg Germany), equipped with a ND:YAG laser as excitation source. The plate is measured twice with the excitation at 355 nm and at the emission with a delay of 100 ns and a gate of 100 ns, total exposure time 10s at 730 (bandwith 30 nm) or 645 nm (bandwith 75 nm), respectively.
EC50 values were determined using Activity Base analysis (ID Business Solution, Limited). […] Specificity for GPBAR1 was tested in non-transfected CHO cells in the same assay as above.
(In general: cAMP levels reflect the balance of adenylyl cyclase and phosphodiesterase activity.)
The term EC50 denotes the concentration giving half of the maximal effect. Regarding `O=C(c1cccnc1Oc1cccc(C(F)(F)F)c1)N1CCCc2ccccc21` [Example 1, (3,4-Dihydro-2H-quinolin-1-yl)-[2-(3-trifluoromethyl-phenoxy)-pyridin-3-yl]-methanone], the EC50 came out at 396 nM.

For `O=C(c1cccnc1Oc1ccccc1Cl)N1CCCc2ccccc21` [Example 2, [2-(2-Chloro-phenoxy)-pyridin-3-yl]-(3,4-dihydro-2H-quinolin-1-yl)-methanone], the EC50 came to 989 nM. This EC50 lies about 2.5-fold higher than the previous one.

As to `O=C(c1cccnc1Oc1cccc(Cl)c1)N1CCCc2ccccc21` [Example 3, [2-(3-Chloro-phenoxy)-pyridin-3-yl]-(3,4-dihydro-2H-quinolin-1-yl)-methanone], a half-maximal response (EC50) required 192 nM. This EC50 is about 5.2-fold lower than that of the compound before. Consider `Cc1ccc2c(c1)CCCN2C(=O)c1cccnc1Oc1cccc(C(F)(F)F)c1` [Example 4, (6-Methyl-3,4-dihydro-2H-quinolin-1-yl)-[2-(3-trifluoromethyl-phenoxy)-pyridin-3-yl]-methanone], for which the EC50 was found to be 1400 nM. Take `Cc1ccc2c(c1)CCCN2C(=O)c1cccnc1Oc1cccc(Cl)c1` [Example 5, [2-(3-Chloro-phenoxy)-pyridin-3-yl]-(6-methyl-3,4-dihydro-2H-quinolin-1-yl)-methanone]: a half-maximal response (EC50) required 649 nM. `O=C(c1cccnc1Oc1ccc(Cl)c(Cl)c1)N1CCCc2ccccc21` [Example 6, [2-(3,4-Dichloro-phenoxy)-pyridin-3-yl]-(3,4-dihydro-2H-quinolin-1-yl)-methanone]: a half-maximal response (EC50) required 996 nM. Consider `N#Cc1cccc(Oc2ncccc2C(=O)N2CCCc3ccccc32)c1` [Example 7, 3-[3-(3,4-Dihydro-2H-quinoline-1-carbonyl)-pyridin-2-yloxy]-benzonitrile], for which the EC50 is 575 nM. In turn, `Cc1cccc(Oc2ncccc2C(=O)N2CCCc3ccccc32)c1` [Example 8, (3,4-Dihydro-2H-quinolin-1-yl)-(2-m-tolyloxy-pyridin-3-yl)-methanone] displayed an EC50 of 644 nM.

Turning to `Cc1ccc(Oc2ncccc2C(=O)N2CCCc3ccccc32)cc1Cl` [Example 9, [2-(3-Chloro-4-methyl-phenoxy)-pyridin-3-yl]-(3,4-dihydro-2H-quinolin-1-yl)-methanone], a half-maximal response (EC50) required 1010 nM. For `O=C(c1cccnc1Oc1ccc(F)c(Cl)c1)N1CCCc2ccccc21` [Example 10, [2-(3-Chloro-4-fluoro-phenoxy)-pyridin-3-yl]-(3,4-dihydro-2H-quinolin-1-yl)-methanone], the concentration giving a half-maximal response (EC50) was 53 nM. In turn, `Cc1ccc(Cl)cc1Oc1ncccc1C(=O)N1CCCc2ccccc21` [Example 11, [2-(5-Chloro-2-methyl-phenoxy)-pyridin-3-yl]-(3,4-dihydro-2H-quinolin-1-yl)-methanone] came in with an EC50 of 153 nM. Consider `O=C(c1cccnc1Oc1cccc(Cl)c1Cl)N1CCCc2ccccc21` [Example 12, [2-(2,3-Dichloro-phenoxy)-pyridin-3-yl]-(3,4-dihydro-2H-quinolin-1-yl)-methanone], for which a half-maximal response (EC50) required 1150 nM. `O=C(c1cccnc1Oc1cc(F)cc(Cl)c1)N1CCCc2ccccc21` [Example 13, [2-(3-Chloro-5-fluoro-phenoxy)-pyridin-3-yl]-(3,4-dihydro-2H-quinolin-1-yl)-methanone] returned an EC50 of 149 nM. Compared with the last compound, the EC50 is about 7.7-fold lower.

With `O=C(c1cccnc1Oc1cc(Cl)c(Cl)cc1Cl)N1CCCc2ccccc21` [Example 14, (3,4-Dihydro-2H-quinolin-1-yl)-[2-(2,4,5-trichloro-phenoxy)-pyridin-3-yl]-methanone], the EC50 was 236 nM. For `O=C(c1ccccc1)c1cccc(Oc2ncccc2C(=O)N2CCCc3ccccc32)c1` [Example 15, [2-(3-Benzoyl-phenoxy)-pyridin-3-yl]-(3,4-dihydro-2H-quinolin-1-yl)-methanone], the response was half-maximal at 1690 nM (EC50). Next, `O=C(c1cccnc1Oc1cccc(OC(F)(F)F)c1)N1CCCc2ccccc21` [Example 16, (3,4-Dihydro-2H-quinolin-1-yl)-[2-(3-trifluoromethoxy-phenoxy)-pyridin-3-yl]-methanone]: 1920 nM.

The values above are taken from US8309734B2 (Hoffmann-La Roche Inc., priority 2008, dated 2012).
